# Values of other authors in US20120289568A1, “COMBINATIONS OF OXYBUTYNIN AND SALIVARY STIMULANTS FOR THE TREATMENT OF OVERACTIVE BLADDER” (THERAVIDA, INC., priority 2011, published 2012).
# Conditions: 5 mg of pilocarpine
smiles,measurement,value
CC[C@@H]1C(=O)OC[C@@H]1Cc1cncn1C [pilocarpine],time of maximum saliva output after administration,about 30 minutes
